Results from patent US10738004B2, “Cyclic compound” (Takeda Pharmaceutical Company Limited, priority 2016, dated 2020).

How the values were obtained:
TLR4 = molecular target: T1, TLR4 (Mus musculus, UniProt Q9QUK6); test: Suppressive effect on NO production (LPS-stimulated RAW264.7); assay type: cell-based; conditions: mouse macrophage cell line RAW264.7; compound final concentration 10 nM; LPS 1.25 ng/ml + mouse interferon gamma 0.2 ng/ml; nitrite ion in culture supernatant (DAN fluorescence)
T1 construct: measured using mouse macrophage cell line RAW264.7; endogenous in cells; host or cells: RAW264.7 (mouse macrophage cell line)
T1 sequence (Q9QUK6 26-835): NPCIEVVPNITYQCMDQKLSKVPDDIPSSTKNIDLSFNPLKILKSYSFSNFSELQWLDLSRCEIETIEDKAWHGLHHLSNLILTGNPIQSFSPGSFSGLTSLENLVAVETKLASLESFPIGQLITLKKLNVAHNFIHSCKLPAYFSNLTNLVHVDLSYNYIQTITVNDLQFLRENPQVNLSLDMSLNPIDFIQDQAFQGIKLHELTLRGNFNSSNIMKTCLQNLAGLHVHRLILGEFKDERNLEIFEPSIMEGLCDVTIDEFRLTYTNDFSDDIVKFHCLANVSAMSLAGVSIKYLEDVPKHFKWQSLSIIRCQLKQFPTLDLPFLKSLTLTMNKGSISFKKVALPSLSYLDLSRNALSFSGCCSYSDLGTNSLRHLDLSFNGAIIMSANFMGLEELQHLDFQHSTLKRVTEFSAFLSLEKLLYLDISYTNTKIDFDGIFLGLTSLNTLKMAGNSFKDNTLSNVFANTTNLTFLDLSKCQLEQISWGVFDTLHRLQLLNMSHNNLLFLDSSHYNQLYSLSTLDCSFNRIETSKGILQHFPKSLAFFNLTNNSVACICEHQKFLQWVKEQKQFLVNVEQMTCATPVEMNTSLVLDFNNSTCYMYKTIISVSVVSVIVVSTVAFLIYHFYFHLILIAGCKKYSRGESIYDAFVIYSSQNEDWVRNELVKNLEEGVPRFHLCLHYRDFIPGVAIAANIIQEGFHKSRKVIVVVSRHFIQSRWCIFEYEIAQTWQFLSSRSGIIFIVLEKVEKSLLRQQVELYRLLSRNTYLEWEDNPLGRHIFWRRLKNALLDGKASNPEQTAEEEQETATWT
T1 sequence (Q9JHF9 19-160 partner): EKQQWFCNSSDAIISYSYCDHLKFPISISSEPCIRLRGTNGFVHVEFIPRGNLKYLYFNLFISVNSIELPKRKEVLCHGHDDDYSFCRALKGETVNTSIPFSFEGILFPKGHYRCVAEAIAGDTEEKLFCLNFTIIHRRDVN
Procedure: The suppressive activity on TLR4 was measured using mouse macrophage cell line RAW264.7 and by an inhibition ratio by the test compound (compound of Example 1) against NO produced by the addition of lipopolysaccharide (LPS). The cells were prepared at 2×10^6 cells/ml in RPMI-1640 medium (phenol red free) supplemented with 10% inactivated fetal calf serum, and seeded in a 384-well plate at 6×10^4 cells/30 μL per well. The cells were cultured overnight at 37° C. under 5% CO2/95% air. The test compound dissolved in DMSO was diluted 200-fold with RPMI-1640 medium to a compound concentration of […]. The prepared test compound (10 μL) was added to the cells (final concentration 10 nM), and LPS (Sigma Ltd.) and mouse interferon gamma (Wako Pure Chemical Industries, Ltd.) were respectively added by 10 μL to the final concentrations of 1.25 ng/ml and 0.2 ng/ml. After further culturing overnight, the concentration of nitrite ion (stable metabolite of NO) in the culture supernatant was measured and used as an index of NO production. The nitrite ion concentration was quantified by adding 10 μL of a solution of 20 μg/mL 2,3-diaminonaphthalene (DAN) in 0.2N HCl to the culture supernatant (20 μL), incubating the mixture at room temperature for 10 min, adding 0.5N NaOH (10 μL), and measuring 460 nm (excitation wavelength 355 nm) fluorescence value by a plate reader EnVision (PerkinElmer). […]

CCOC(=O)C1=C[C@@H](O)CC[C@H]1S(=O)(=O)Cc1ccc(F)cc1Cl (single isomer, unassigned) [Example 1]
NO production suppression effect at 10 nM (% inhibition) (TLR4): 98 % inhibition | melting point: 155 to 156 °C
